Reference: patent publication US20090215835A1, “TREATMENT OF CANCER WITH SORAFENIB” (priority 2005, published 2009)

Experiments:
Format in all cases: in vivo, human
[1] = system: inoperable hepatocellular carcinoma (HCC); experiment: Tumor response, TTP and survival in patients with inoperable hepatocellular carcinoma on oral sorafenib; settings: 400 mg bid oral
Experimental: (§1) Patients with inoperable hepatocellular carcinoma (HCC), no prior systemic treatment, and Child-Pugh (CP) score of A or B, received oral sorafenib at 400 mg bid continuously in 4-week cycles. Tumor response was assessed every two cycles using modified WHO criteria and independent radiologic review. Plasma samples were collected to evaluate the pharmacokinetics (PK) of sorafenib. Biomarker assays were performed in selected patients. These included phospho-ERK levels via immunohistochemistry in pretreatment biopsies, plasma HER-2/neu analysis, plasma protein proteomics via mass spectrometry, and blood cell RNA expression patterns via Affymetrix GeneChip microarray analysis.

[2] = Drug-related toxicities in HCC patients on oral sorafenib; settings: 400 mg bid oral
Experimental: as §1

[3] = Pharmacokinetics of sorafenib in plasma of HCC patients; settings: Child-Pugh A versus B HCC patients, 400 mg bid oral
Experimental: as §1

[4] = 137 HCC patients, independent radiologic review

N-[4-chloro-3-(trifluoromethyl)phenyl]-N′-{4-[2-carbamoyl-1-oxo-(4-pyridyloxy)]phenyl}urea [sorafenib]
patients who achieved a partial response ([1]; 137 HCC patients, continuous 4-week cycles, independent radiologic review, modified WHO criteria): 2.2% | patients who achieved a minor response [1, 4]: 5.8% | patients with stable disease for at least 16 weeks as best response [1, 4]: 33.6% | median overall survival ([1]; HCC patients): 9.2 months | median TTP ([1]; investigator-assessed, HCC patients): 4.2 months | grade ¾ drug-related toxicity leading to dose delay and/or modification: diarrhea [2]: 4.4% | grade ¾ drug-related toxicity leading to dose delay and/or modification: fatigue [2]: 5.8% | grade ¾ drug-related toxicity leading to dose delay and/or modification: hand-foot skin reaction [2]: 5.1% | pharmacokinetic differences between CP A and B patients [3]: no pharmacokinetic differences
